Experimental findings from ChEMBL document CHEMBL1133024, “Antineoplastic agents. 443. Synthesis of the cancer cell growth inhibitor hydroxyphenstatin and its sodium diphosphate prodrug” (J Med Chem, 2000) are described below.

One assay concerns KM-20L2. In words: Evaluated for growth inhibition (anticancer activity) of Human colon KM20L2 cancer cell line. In kind it is functional.
Assay [1] concerns NCI-H460. In words: Evaluated for growth inhibition (anticancer activity) of Human lung-NSC cancer NCI-H460 cell line.
The next assay addresses Tubulin alpha chain (Sus scrofa, UniProt P02550). As to the kind of experiment: Inhibition of tubulin polymerization. It is filed as functional.
The subject of assay [2] is SF-295. In words: Evaluated for growth inhibition (anticancer activity) in Human CNS cancer SF-295 cell line. It is filed as functional.
For another assay, the system named is P388. In words: Evaluated for growth inhibition (anticancer activity) of Murine P388 lymphocytic leukemia cell line. It is filed as functional. To be noted: Mus musculus.
For a further assay, the system named is Staphylococcus aureus. In words: Evaluated for antimicrobial activity against Staphylococcus aureus. In kind it is functional.
The test system of a further assay is Escherichia coli. As to the kind of experiment: Evaluated for antimicrobial activity against Escherichia coli. In kind it is functional.
The test system of assay [3] is Stenotrophomonas maltophilia. In words: Evaluated for antimicrobial activity against Stenotrophomonas maltophilia. It is filed as functional.
The next assay has as its system Neisseria gonorrhoeae. As to the kind of experiment: Evaluated for antimicrobial activity against Neisseria gonorrhoeae. In kind it is functional.
The test system of the next assay is Cryptococcus neoformans. In words: Evaluated for antimicrobial activity against Cryptococcus neoformans. In kind it is functional.
The next assay concerns Candida albicans. In words: Evaluated for antimicrobial activity against Candida albicans. In kind it is functional.
In assay [4] the test system is DU-145. As to the kind of experiment: Evaluated for growth inhibition (anticancer activity) of Human prostate cancer DU-145 cell line. It is filed as functional.
Assay [5] concerns NCI-H460. As to the kind of experiment: Evaluated for growth inhibition (anticancer activity) of Human lung-NSC cancer NCI-H460 cell line. In kind it is functional.
Another assay concerns BXPC-3. As to the kind of experiment: Evaluated for growth inhibition (anticancer activity) of human pancreas-a BXPC-3 cell line. It is filed as functional.
In the next assay the test system is Micrococcus luteus. As to the kind of experiment: Antimicrobial activity against Micrococcus luteus. It is filed as functional.
In a further assay the test system is RPMI-7951. In words: Evaluated for growth inhibition (anticancer activity) of Human melanoma cancer RPMI-7951 cell line. In kind it is functional.
For assay [6], the system named is SF-295. As to the kind of experiment: Evaluated for growth inhibition (anticancer activity) of Human CNS cancer SF-295 cell line. It is filed as functional.
For assay [7], the target named is Tubulin alpha chain (Sus scrofa) (UniProt P02550). In words: Inhibition of colchicine binding. It is filed as functional. To be noted: concentration not given here.
The subject of assay [8] is DU-145. As to the kind of experiment: Evaluated for growth inhibition (anticancer activity) in Human prostate cancer DU-145 cell line. It is filed as functional.

The structures appear in SMILES notation. ≈ marks a conversion by molar mass, not a printed value. Where only a bound is given, the exact number is not on record here.

Chain of Tubulin alpha chain (P02550 whole entry, looked up): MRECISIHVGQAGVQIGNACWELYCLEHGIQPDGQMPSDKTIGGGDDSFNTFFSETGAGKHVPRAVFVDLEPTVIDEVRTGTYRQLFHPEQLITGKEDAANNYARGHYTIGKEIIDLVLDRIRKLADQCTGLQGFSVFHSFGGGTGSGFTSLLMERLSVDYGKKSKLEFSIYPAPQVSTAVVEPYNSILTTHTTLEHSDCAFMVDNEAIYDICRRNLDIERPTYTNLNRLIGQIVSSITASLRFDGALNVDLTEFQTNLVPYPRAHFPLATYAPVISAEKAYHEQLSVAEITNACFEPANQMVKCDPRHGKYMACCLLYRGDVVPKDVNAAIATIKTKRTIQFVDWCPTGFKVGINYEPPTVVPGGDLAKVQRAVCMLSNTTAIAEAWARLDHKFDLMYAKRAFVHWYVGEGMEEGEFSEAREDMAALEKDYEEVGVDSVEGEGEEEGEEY
Chain of Tubulin alpha chain (Sus scrofa) (P02550 whole entry, looked up): as above

Turning to `COc1ccc(/C=C\c2cc(OC)c(OC)c(OC)c2)cc1OP(=O)([O-])[O-].[Na+].[Na+]` [FOSBRETABULIN DISODIUM], the GI50 with KM-20L2 was 0.53 µg/mL; in the assay with NCI-H460 [1], 0.029 µg/mL; in the assay on SF-295 [2], 0.036 µg/mL; with P388 it was 0.0004 µg/mL. Moreover, the IC50 at Tubulin alpha chain is over 40000 nM.
On to `COc1ccc(Br)c(O)c1O`, for which the MIC against Staphylococcus aureus was 25 ug disk-1; with Escherichia coli, 50 ug disk-1; in [3] it was 25 ug disk-1; in the assay with Neisseria gonorrhoeae, under 6.25 ug disk-1.
On to `COc1ccc(Br)c(C=O)c1OC(C)=O`, for which the MIC is recorded as 6.25 ug disk-1 against Cryptococcus neoformans, 50 ug disk-1 with Escherichia coli, 25 ug disk-1 against Neisseria gonorrhoeae and 12.5 ug disk-1 against Candida albicans.
In the case of `COc1cc(C(=O)c2ccc(OC)c(OP(=O)(OCc3ccccc3)OCc3ccccc3)c2OP(=O)(OCc2ccccc2)OCc2ccccc2)cc(OC)c1OC`, the GI50 in the assay on DU-145 [4] is over 10 µg/mL; in the assay with KM-20L2, 5.9 µg/mL (≈ 6.9 µM); in the assay on NCI-H460 [5], over 10 µg/mL; in the assay on P388, 2.55 µg/mL (≈ 2.98 µM); in the assay on BXPC-3, over 10 µg/mL; in the assay with RPMI-7951 it was over 10 µg/mL. Further, the concentration for 50% growth inhibition (GI50) with SF-295 [6] was over 10 µg/mL. The MIC with Micrococcus luteus was determined as 50 µg/mL (≈ 58.5 µM).
Consider `COCOc1c(OC)ccc(C(=O)c2cc(OC)c(OC)c(OC)c2)c1OCOC`, for which the GI50 in the assay on DU-145 [4], in the assay on NCI-H460 [5], in the assay on P388, with BXPC-3, in the assay with RPMI-7951 and in the assay with SF-295 [6] was over 10 µg/mL throughout. Besides, in assay [7], the inhibition is over 10%.
Consider `COc1cc(/C=C\c2ccc(OC)c(OP(=O)([O-])[O-])c2OP(=O)([O-])[O-])cc(OC)c1OC.[Na+].[Na+].[Na+].[Na+]`, for which the GI50 with NCI-H460 [5] is 0.038 µg/mL; with DU-145 [8], 0.034 µg/mL; in the assay on P388, under 0.01 µg/mL; with BXPC-3 it was 1.5 µg/mL; in the assay with SF-295 [6] it was 0.036 µg/mL.
As to `COc1ccc(Br)c(C=O)c1O`, the MIC against Cryptococcus neoformans was found to be 12.5 ug disk-1; in the assay with Neisseria gonorrhoeae it was 12.5 ug disk-1; in the assay with Candida albicans, 50 ug disk-1.
As for `COc1cc(C(=O)c2ccc(OC)c(OC)c2OC)cc(OC)c1OC`, the GI50 was 32.5 µg/mL (≈ 89.7 µM) in the assay with DU-145 [4]; 19 µg/mL (≈ 52.4 µM) with NCI-H460 [5]; over 10 µg/mL in the assay with P388; 14.2 µg/mL (≈ 39.2 µM) in the assay with BXPC-3; 23.1 µg/mL (≈ 63.7 µM) in the assay on SF-295 [6].
Turning to `COc1ccc(/C=C\c2cc(OC)c(OC)c(OC)c2)cc1O` [COMBRETASTATIN A4], the GI50 with DU-145 [4] is 0.0008 µg/mL (≈ 0.00253 µM); in the assay with KM-20L2 it was 0.34 µg/mL (≈ 1.07 µM); in the assay on NCI-H460 [5] it was 0.0006 µg/mL (≈ 0.0019 µM); in the assay with P388, 0.0003 µg/mL (≈ 0.000948 µM); in the assay with BXPC-3, 0.39 µg/mL (≈ 1.23 µM); in the assay on SF-295 [6], over 0.001 µg/mL.
On to `COc1ccc(/C=C\c2cc(OC)c(OC)c(OC)c2)c(O)c1O` [COMBRETASTATIN A-1], for which the GI50 was 0.17 µg/mL (≈ 0.512 µM) with DU-145 [4]; 0.061 µg/mL (≈ 0.184 µM) with KM-20L2; 0.74 µg/mL (≈ 2.23 µM) in the assay with NCI-H460 [1]; 0.3 µg/mL (≈ 0.903 µM) in the assay on P388; 4.4 µg/mL (≈ 13.2 µM) in the assay on BXPC-3. For the same compound, in assay [7], the inhibition is 99.6%. Further, the half-maximal inhibitory concentration (IC50) at Tubulin alpha chain was 1100 nM.
As to `COc1cccc(C=O)c1OC(C)=O`, the MIC against Cryptococcus neoformans stood at 25 ug disk-1; in assay [3] it was 50 ug disk-1.
As for `COc1ccc(C(=O)c2cc(OC)c(OC)c(OC)c2)c(O)c1O` [HYDROXYPHENSTATIN], the GI50 stood at 0.048 µg/mL (≈ 0.144 µM) with DU-145 [4]; 0.21 µg/mL (≈ 0.628 µM) with NCI-H460 [5]; 0.315 µg/mL (≈ 0.942 µM) in the assay on P388; 3.5 µg/mL (≈ 10.5 µM) in the assay on BXPC-3; 0.58 µg/mL (≈ 1.73 µM) with RPMI-7951; 0.04 µg/mL (≈ 0.12 µM) with SF-295 [6]. The inhibition in [7] turned out to be 77%. The compound also registered an IC50 against Tubulin alpha chain of 820 nM.
Consider `COc1cc(C(=O)c2ccc(OC)c(OP(=O)([O-])[O-])c2OP(=O)([O-])[O-])cc(OC)c1OC.[Na+].[Na+].[Na+].[Na+]`, for which the GI50 worked out at 0.3 µg/mL with DU-145 [4]; 33.5 µg/mL in the assay on KM-20L2; 0.35 µg/mL in the assay on NCI-H460 [5]; 0.0336 µg/mL with P388; 5.3 µg/mL in the assay on BXPC-3; 0.23 µg/mL in the assay on SF-295 [6]. At Tubulin alpha chain, this compound displayed a half-inhibitory concentration (IC50) of over 40000 nM.

As a reminder, the GI50 is the concentration giving 50% growth inhibition. A word on the IC50: it is the point on the concentration scale where inhibition reaches its midpoint. A higher IC50 goes with weaker potency in that assay. The inhibition is how much of the control response was suppressed.
